15 compounds from patent publication EP0153803A2, “Triazole antifungal agents” (Pfizer Limited, priority 1984, dated 1985) can be followed below.

The test system of this experiment is Candida albicans. The experiment can be described thus: in vivo protection of mice inoculated with Candida albicans (PD50). Conditions: vs. Candida albicans in mice, dose giving 50% protection against lethal effect of the infection, 48 hours observation, route not given; for ED50: Candida albicans, 48 h; for PD50: 2880 min. Here is the method: The in vivo evaluation of the compounds can be carried out at a series of dose levels by intraperitoneal or intravenous injection or by oral administration, to mice which are inoculated with a strain of Candida albicans. Activity is based on the survival of a treated group of mice after the death of an untreated group of mice following 48 hours observation.- The dose level at which the compound provides 50% protection (PD50) against the lethal effect of the infection is noted. Using the test method described in the text, the following PD50 values were obtained vs. Candida albicans in mice:-

What is called ED50 is the dose at which the effect has come halfway, by size or by number of responders. A high value points to a need for a large dose.

Structures are written as SMILES. Bounds are passed on as bounds.

In turn, `CC(C)(n1cncn1)C(O)(c1ccc(Cl)cc1)c1ccc(F)cc1F` (racemic) [Example 4] yielded a median effective dose (ED50) of 2.3 mg/kg.

With `CC(C)(n1cncn1)C(O)(c1ccc(F)cc1)c1ccc(F)cc1F` (racemic) [Example 5], the ED50 was 2.2 mg/kg.

Consider `OC(c1ccc(F)cc1F)(c1ccc(F)cc1F)C(F)n1cncn1` (racemic) [Example 11], for which the 50% effective dose (ED50) was less than 1 mg/kg.

In turn, `CC(n1cncn1)C(O)(c1ccc(F)cc1)c1ccc(F)cc1F` (single isomer, unassigned) [Example 2] showed a median effective dose (ED50) of less than 1 mg/kg.

With `OC(c1ccc(Cl)cc1)(c1ccc(F)cc1F)C(F)n1cncn1` (single isomer, unassigned) [Example 7 (diastereomer I), 1-(4-Chloroghenyl)-1-(2,4-difiuorophenyl)-2-fiuoro-2-(1H-1,2,4-triazol-l-yl)-ethanol], the PD50 worked out at 1.6 mg/kg.

For the compound `OC(c1ccc(Cl)cc1)(c1ccc(F)cc1F)C(F)n1cncn1` (single isomer, unassigned) [Example 7 (diastereomer II), 1-(4-Chloroghenyl)-1-(2,4-difiuorophenyl)-2-fiuoro-2-(1H-1,2,4-triazol-l-yl)-ethanol], the PD50 is 0.3 mg/kg.

The compound `OC(c1ccc(F)cc1)(c1ccc(Cl)cc1Cl)C(F)n1cncn1` (single isomer, unassigned) [Example 9 (diastereomer I)] returned an ED50 of 0.3 mg/kg.

Turning to `OC(c1ccc(F)cc1)(c1ccc(Cl)cc1Cl)C(F)n1cncn1` (single isomer, unassigned) [Example 9 (diastereomer II)], the PD50 was 0.5 mg/kg.

The compound `OC(c1ccc(Cl)cc1)(c1ccc(Cl)cc1Cl)C(F)n1cncn1` (single isomer, unassigned) [Example 10] displayed a 50% effective dose (ED50) of 3.2 mg/kg.

Consider `OC(c1ccc(F)cc1)(c1ccc(F)cc1)C(F)n1cncn1` (single isomer, unassigned) [Example 12(+)], for which the PD50 worked out at 0.75 mg/kg.

As to `OC(c1ccc(F)cc1)(c1ccc(F)cc1)C(F)n1cncn1` (single isomer, unassigned) [Example 12(-)], the PD50 was determined as 0.2 mg/kg.

For `CC(F)(n1cncn1)C(O)(c1ccc(Cl)cc1)c1ccc(F)cc1F` (stereo not drawn) [Example 1, 1-(4-Chlorophenyl)-1-(2,4-difluorophenyl)-2-fluoro-2-(1H-3,2,4-triazol-1-yl)propan-1-ol], the 50% effective dose (ED50) came to 0.95 mg/kg.

Take `CC(C)(n1cncn1)C(O)(c1ccc(Cl)cc1)c1ccc(Cl)cc1` [Example 3]: the ED50 was less than 1 mg/kg.

`CC(C)(n1cncn1)C(O)(c1ccc(F)cc1)c1ccc(F)cc1` [Example 6, 1,1-Bis(4-fluorophenyl)-2-methyl-2-(1H-1,2,4-triazol-1-yl)propan-l-ol] yielded an ED50 of 1.6 mg/kg.

As to `OC(c1ccc(F)cc1)(c1ccc(F)cc1)C(F)n1cncn1` (stereo not drawn) [Example 8, 2-Fluoro-1,1-di-(4-fluorophenyl)-2-(1,2,4-triazol-1-yl)ethanol], the median effective dose (ED50) was 0.3 mg/kg. Against the preceding compound, the ED50 is about 5.3-fold lower.
